A word on the IC50: it is the concentration at which inhibition is half-maximal.

Consider two compounds from PubChem BioAssay AID743390 (Vanderbilt Specialized Chemistry Center, 2014).

The assay addresses Phospholipase D1 (Homo sapiens) (UniProt Q13393). In words: phospholipase D1 enzyme inhibition confirmation – biochemical, concentration response (AID 743390). Conditions: purified human PLD1 enzyme activity assay.

Sequence of Phospholipase D1 (Homo sapiens) (Q13393 whole entry, looked up): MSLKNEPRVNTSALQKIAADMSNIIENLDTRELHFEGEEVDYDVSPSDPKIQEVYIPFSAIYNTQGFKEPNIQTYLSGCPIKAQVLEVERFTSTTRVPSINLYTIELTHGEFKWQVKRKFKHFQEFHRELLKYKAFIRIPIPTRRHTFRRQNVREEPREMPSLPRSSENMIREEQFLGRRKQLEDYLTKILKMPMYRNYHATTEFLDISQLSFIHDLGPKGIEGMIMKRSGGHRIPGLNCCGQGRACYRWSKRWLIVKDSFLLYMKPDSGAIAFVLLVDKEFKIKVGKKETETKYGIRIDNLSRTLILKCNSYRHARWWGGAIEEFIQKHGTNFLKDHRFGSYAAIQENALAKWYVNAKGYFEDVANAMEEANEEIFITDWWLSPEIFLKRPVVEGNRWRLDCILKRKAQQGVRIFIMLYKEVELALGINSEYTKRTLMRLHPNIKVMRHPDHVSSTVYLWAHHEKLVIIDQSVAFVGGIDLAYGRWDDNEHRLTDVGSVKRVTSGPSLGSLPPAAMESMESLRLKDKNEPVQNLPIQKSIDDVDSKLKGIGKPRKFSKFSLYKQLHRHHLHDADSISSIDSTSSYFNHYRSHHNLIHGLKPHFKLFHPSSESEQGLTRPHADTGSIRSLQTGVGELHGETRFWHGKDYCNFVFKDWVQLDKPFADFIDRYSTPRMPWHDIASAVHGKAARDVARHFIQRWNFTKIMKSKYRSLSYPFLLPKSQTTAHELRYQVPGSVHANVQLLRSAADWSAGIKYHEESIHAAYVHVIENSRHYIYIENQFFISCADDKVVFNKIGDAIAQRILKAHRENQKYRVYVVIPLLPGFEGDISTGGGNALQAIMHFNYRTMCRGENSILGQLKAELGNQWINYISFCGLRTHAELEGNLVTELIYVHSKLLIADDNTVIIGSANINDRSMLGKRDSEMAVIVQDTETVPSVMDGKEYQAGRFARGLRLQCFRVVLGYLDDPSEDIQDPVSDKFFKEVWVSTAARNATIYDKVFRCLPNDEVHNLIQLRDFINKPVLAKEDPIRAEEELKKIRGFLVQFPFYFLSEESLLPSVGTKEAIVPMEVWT

As for `O=C(NCCN1CCC2(CC1)C(=O)NCN2Cc1cccnc1)c1cc2ccccc2o1`, the IC50 was 20 µM. In the case of `O=C(NCCN1CCC2(CC1)C(=O)NCN2Cc1cccnc1)c1ccc2ccccc2c1`, the IC50 was 20 µM.
